According to patent US20250099427A1, “Drug and Method of Treating or Preventing Renal Disease Using Drug” (Showa University, priority 2018, published 2025):

Tests used:
[1] = system: Acute Renal Disease (Cisplatin Nephropathy) Animal Model; assay: Test using acute renal disease (cisplatin nephropathy) animal model, BUN and sCr; assay type: in vivo, mouse; details: mean±SE
Procedure: A male ddY strain mouse (30 to 40 g) was used as an experimental animal. Under anesthesia with isoflurane, cisplatin (20 mg/kg) was injected into the femoral vein at a constant rate over 15 minutes to induce nephropathy. 3 days later, blood was collected from the descending vena cava, and after separating serum, blood urea nitrogen (BUN) and serum creatinine (sCr) were measured to evaluate renal function. Further, the kidney was isolated after perfusion, RNA was extracted, reverse transcription was conducted, real-time RT-PCR was conducted using the produced cDNA as a template, and the effect on TNF-α mRNA expression in renal tissues was also studied. A group to which physiological saline was administered instead of cisplatin was designated as the sham group.
In order to study the timing of administration, a drug (10 mg/kg) was injected into the femoral vein at a constant rate simultaneously with cisplatin, or 1 or 2 days later. In order to study dose relationship, a drug (0.1 mg/kg, 1 mg/kg, or 10 mg/kg) was injected to the femoral vein at a constant rate.
Further, in order to study the effect on TNF-α mRNA expression and histopathological study, a drug (10 mg/kg) was similarly administered 1 day after administration of cisplatin.
The collected blood was centrifuged at 3000 rpm for 15 minutes, serum was separated, and BUN and sCr were measured. In the measurement, BUN was measured using Urea B-test Wako (manufactured by Wako Pure Chemical Industries, Ltd.) and a QuantiChrom Urea Assay Kit (manufactured by Funakoshi Co., Ltd.), and sCr was measured using Lab Assay Creatinine (manufactured by Wako Pure Chemical Industries, Ltd.).
In Tables 13 to 15, the experimental results are expressed in mean±standard error. The RT-PCR results were corrected with the amount of β-Actin as an endogenous control gene. With reference to statistically significant difference, an unpaired test between two groups (Student's t-test) was conducted for comparison between two groups, and one-way analysis of variance was conducted and then a Dunnett test was conducted for comparison among multiple groups. Further, in the histopathological study, a Mann-Whitney U test was conducted, and in all cases, a significance level of 5% or less (P<0.05) was regarded as significant difference.

[2] = system: Acute Renal Failure Animal Model; assay: Acute renal failure animal model, pathological tissue specimen (HE staining) lesion scores; assay type: in vivo, mouse; details: 10 mg/kg
Procedure: 24 hours after the ischemia and reperfusion processes, urine was collected for 24 hours using a metabolic cage, measurement of body weight was conducted, and blood was collected. Thereafter, nephrectomy was conducted, and formalin-fixed kidney was permeated with paraffin using an automatic embedding device to produce a paraffin block. The paraffin block was sliced into 3 μm sections with a microtome, and placed on a slide glass. Then, the sections were stretched with a paraffin stretcher at 52° C., and sufficiently dried overnight in a paraffin melter at 37° C. After deparaffinization and washing with water, the sections were stained with a Mayer's hematoxylin staining solution for 1 minute and washed with running water for 15 minutes. Thereafter, the sections were stained with an eosin staining solution for 45 seconds, and dehydrated with 80% to 100% ethanol, followed by clearing with xylene and sealing with marinol. Each specimen was examined microscopically at a magnification of 50 using an optical microscope. With respect to tubular dilatation, tubular necrosis, and tubular casts in the cortex, outer zone of outer medulla, and inner zone of outer medulla, the percentage of lesions in each site was evaluated according to the following criteria.
In Table 12, the experimental results are expressed in mean±standard error in eight mice in each group. For comparison among multiple groups, firstly, one-way analysis of variance (ANOVA) was conducted, and then a Bonferroni test was conducted, if significant difference was recognized. Significant difference was recognized with a significance level of less than 5% (P<0.05).

[3] = Administration one day later (1 day): 10 mg/kg femoral vein after cisplatin 20 mg/kg, timing study Table 13
[4] = Administration two days later (2 day): 10 mg/kg femoral vein after cisplatin 20 mg/kg
[5] = Coadministration: 10 mg/kg femoral vein simultaneously with cisplatin 20 mg/kg, blood 3 days after cisplatin
[6] = TNF-α study Table 15: 10 mg/kg 1 day after cisplatin
[7] = dose relationship study Table 14: 0.1 mg/kg femoral vein 1 day after cisplatin, 0.1 mg/kg
[8] = dose relationship study Table 14: 1 mg/kg femoral vein 1 day after cisplatin, 1 mg/kg
[9] = dose relationship study Table 14: 1 mg/kg femoral vein 1 day after cisplatin, listed as SMPT-7, 1 mg/kg
[10] = dose relationship study Table 14: 10 mg/kg femoral vein 1 day after cisplatin, 10 mg/kg
[11] = dose relationship study Table 14: 10 mg/kg femoral vein 1 day after cisplatin, listed as SMPT-7, 10 mg/kg
[12] = points 0 (no lesion) to 4 (severe, 50% or more), mean±SE, 8 mice

Q: For `CC(C)=CCC/C(C)=C/CC[C@@]1(C)Oc2c(c(O)cc3c2CN(CCC[C@@H](C(=O)O)N2Cc4c(cc(O)c5c4O[C@](C)(CC/C=C(\C)CCC=C(C)C)[C@@H](O)C5)C2=O)C3=O)C[C@@H]1O` [SMTP-7], which BUN [1, 3] is on record?
A: Its BUN is 44.5 ± 2.19 mg/dL.

Q: What about the sCr [1, 3] of the same molecule?
A: Its sCr is 0.80 ± 0.07 mg/dL.

Q: And the BUN [1, 4]?
A: Its BUN is 74.2 ± 17.8 mg/dL.

Q: And the sCr [1, 4]?
A: Its sCr is 0.78 ± 0.18 mg/dL.

Q: And the BUN [1, 5]?
A: The BUN was 66.3 ± 9.23 mg/dL.

Q: What about the sCr [1, 5] of the same molecule?
A: Its sCr is 0.81 ± 0.09 mg/dL.

Q: And the BUN [1, 6]?
A: The BUN was 55.9 ± 5.20 mg/dL.

Q: And the sCr [1, 6]?
A: Its sCr is 0.41 ± 0.07 mg/dL.

Q: And the BUN [1, 7]?
A: Its BUN is 57.0 ± 5.47 mg/dL.

Q: And the sCr [1, 7]?
A: Its sCr is 0.78 ± 0.08 mg/dL.

Q: And the BUN [1, 8]?
A: The BUN was 45.0 ± 6.28 mg/dL.

Q: And the sCr [1, 8]?
A: The sCr was 0.65 ± 0.09 mg/dL.

Q: And the BUN [1, 9]?
A: The BUN was 45.0 ± 6.28 mg/dL.

Q: What about the sCr [1, 9] of the same molecule?
A: Its sCr is 0.65 ± 0.09 mg/dL.

Q: What about the BUN [1, 10] of the same molecule?
A: Its BUN is 32.1 ± 4.63 mg/dL.

Q: And the sCr [1, 10]?
A: The sCr was 0.53 ± 0.03 mg/dL.

Q: And the BUN [1, 11]?
A: The BUN was 32.1 ± 4.63 mg/dL.

Q: And the sCr [1, 11]?
A: The sCr was 0.53 ± 0.03 mg/dL.

Q: And the “Histopathological changes (lesion changes), result in words” value ([2]; compared to control group)?
A: The value was “lesion changes other than the lesion change in tubular casts in the renal cortex were significantly improved”.

Q: What about the “Tubular cast score, Cortex” value [2, 12] of the same molecule?
A: Its value is 0.9 ± 0.1.

Q: And the “Tubular cast score, Inner zone of outer medulla” value [2, 12]?
A: Its value is 1.0 ± 0.2.

Q: And the “Tubular cast score, Outer zone of outer medulla” value [2, 12]?
A: Its value is 0.9 ± 0.1.

Q: And the “Tubular dilatation score, Cortex” value [2, 12]?
A: The value was 2.0 ± 0.3.

Q: What about the “Tubular dilatation score, Inner zone of outer medulla” value [2, 12] of the same molecule?
A: Its value is 1.0 ± 0.2.

Q: What about the “Tubular dilatation score, Outer zone of outer medulla” value [2, 12] of the same molecule?
A: The value was 1.4 ± 0.4.

Q: And the “Tubular necrosis score, Cortex” value [2, 12]?
A: Its value is 0.4 ± 0.2.

Q: What about the “Tubular necrosis score, Inner zone of outer medulla” value [2, 12] of the same molecule?
A: Its value is 0.5 ± 0.2.

Q: What about the “Tubular necrosis score, Outer zone of outer medulla” value [2, 12] of the same molecule?
A: Its value is 0.4 ± 0.2.
